Laboratory results as given in patent US9328106B2, “Cyclic ether pyrazol-4-yl-heterocyclyl-carboxamide compounds and methods of use” (Genentech, Inc., priority 2012, dated 2016).
pKi: −log10 of the molar value.

Target: PIM1 (Homo sapiens (Human), UniProt P11309)
Assay: biochemical
Type: biochemical
Settings: 20 pM PIM1, 1 μM FAM-peptide, 10 μM ATP, 90 minutes at room temperature; read-out: PIM1 LC3K (KI)

Chain of PIM1 (P11309 whole entry): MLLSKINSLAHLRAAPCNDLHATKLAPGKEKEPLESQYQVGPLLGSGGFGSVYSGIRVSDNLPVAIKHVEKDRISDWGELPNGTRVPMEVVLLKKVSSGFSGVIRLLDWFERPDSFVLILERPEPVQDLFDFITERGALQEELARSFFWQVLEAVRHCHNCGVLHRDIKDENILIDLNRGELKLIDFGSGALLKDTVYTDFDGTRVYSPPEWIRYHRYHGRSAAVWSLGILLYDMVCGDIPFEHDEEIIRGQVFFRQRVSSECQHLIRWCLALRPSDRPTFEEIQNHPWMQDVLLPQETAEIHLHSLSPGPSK

pKi	SMILES
10.39	Cc1cc(F)c(-c2nc(C(=O)Nc3cnn(C)c3[C@@H]3CC[C@@H](N)[C@H](F)CO3)ccc2F)c(F)c1 [Example 392, N-(5-((2S,5R,6S)-5-amino-6-fluorooxepan-2-yl)-1-methyl-1H-pyrazol-4-yl)-6-(2,6-difluoro-4-methylphenyl)-5-fluoropicolinamide]
12.00	Cn1ncc(NC(=O)c2ccc(F)c(-c3c(F)cc(C4(O)CC4)cc3F)n2)c1[C@@H]1CC[C@@H](N)[C@H](F)CO1 [Example 204, N-(5-((2S,5R,6S)-5-amino-6-fluorooxepan-2-yl)-1-methyl-1H-pyrazol-4-yl)-6-(2,6-difluoro-4-(1-hydroxycyclopropyl)phenyl)-5-fluoropicolinamide]
10.59	Cc1nn(C)cc1-c1nc(C(=O)Nc2cnn(C)c2[C@@H]2CC[C@@H](N)[C@@H](F)CO2)c(N)s1 [Example 254, 5-amino-N-(5-((2S,5R,6R)-5-amino-6-fluorooxepan-2-yl)-1-methyl-1H-pyrazol-4-yl)-2-(1,3-dimethyl-1H-pyrazol-4-yl)thiazole-4-carboxamide]
11.70	Cn1ncc(NC(=O)c2csc(-c3ccc(Cl)cc3F)n2)c1[C@@H]1CC[C@@H](N)[C@H](F)CO1 [Example 313, N-(5-((2S,5R,6S)-5-amino-6-fluorooxepan-2-yl)-1-methyl-1H-pyrazol-4-yl)-2-(4-chloro-2-fluorophenyl)thiazole-4-carboxamide]
9.76	Cn1ncc(NC(=O)c2csc(-c3c(F)cccc3F)n2)c1[C@@H]1CC[C@@H](N)[C@H](O)CO1 [Example 352, N-(5-((2S,5R,6S)-5-amino-6-hydroxyoxepan-2-yl)-1-methyl-1H-pyrazol-4-yl)-2-(2,6-difluorophenyl)thiazole-4-carboxamide]
12.00	CCOc1ccc(F)c(-c2nc(C(=O)Nc3cnn(C)c3[C@@H]3CC[C@@H](N)[C@H](F)CO3)cs2)c1F [Example 285, N-(5-((2S,5R,6S)-5-amino-6-fluorooxepan-2-yl)-1-methyl-1H-pyrazol-4-yl)-2-(3-ethoxy-2,6-difluorophenyl)thiazole-4-carboxamide]
10.27	Cn1ncc(NC(=O)c2nc(-c3c(F)cccc3F)sc2N)c1C1CCC(O)CCO1 (stereo not drawn) [Example 134, 5-amino-2-(2,6-difluorophenyl)-N-[5-(5-hydroxyoxepan-2-yl)-1-methyl-pyrazol-4-yl]thiazole-4-carboxamide]
9.84	CO[C@H]1CO[C@H](c2c(NC(=O)c3csc(-c4c(F)ccc(F)c4F)n3)cnn2C)CC[C@H]1N [Example 258, N-(5-((2S,5R,6R)-5-amino-6-methoxyoxepan-2-yl)-1-methyl-1H-pyrazol-4-yl)-2-(2,3,6-trifluorophenyl)thiazole-4-carboxamide]
10.08	Cn1ncc(NC(=O)c2ccc(F)c(-c3cccc(F)c3F)n2)c1[C@@H]1CC[C@@H](N)[C@H](F)CO1 [Example 223, N-(5-((2S,5R,6S)-5-amino-6-fluorooxepan-2-yl)-1-methyl-1H-pyrazol-4-yl)-6-(2,3-difluorophenyl)-5-fluoropicolinamide]
10.57	COc1cc(F)c(-c2nc(C(=O)Nc3cnn(C)c3[C@@H]3CC[C@@H](N)[C@@H](F)CO3)ccc2F)c(F)c1 [Example 187, N-(5-((2S,5R,6R)-5-Amino-6-fluorooxepan-2-yl)-1-methyl-1H-pyrazol-4-yl)-6-(2,6-difluoro-4-methoxyphenyl)-5-fluoropicolinamide]
10.54	CC(O)c1cc(F)c(-c2nc(C(=O)Nc3cnn(C)c3[C@@H]3CC[C@@H](N)[C@H](F)CO3)cs2)c(F)c1 (stereo partly drawn) [Example 294, N-(5-((2S,5R,6S)-5-amino-6-fluorooxepan-2-yl)-1-methyl-1H-pyrazol-4-yl)-2-(2,6-difluoro-4-(1-hydroxyethyl)phenyl)thiazole-4-carboxamide]
10.51	COCc1cc(F)c(-c2nc(C(=O)Nc3cnn(C)c3[C@@H]3CC[C@@H](N)[C@H](F)CO3)ccc2F)c(F)c1 [Example 199, N-(5-((2S,5R,6S)-5-amino-6-fluorooxepan-2-yl)-1-methyl-1H-pyrazol-4-yl)-6-(2,6-difluoro-4-(methoxymethyl)phenyl)-5-fluoropicolinamide]
